In PMC7247319, “The mitochondria-targeted peptide SS-31 binds lipid bilayers and modulates surface electrostatics as a key component of its mechanism of action” (The Journal of Biological Chemistry, 2020):
Where a SMILES comes first, the peptide text is derived from it. [ ]: non-standard residue; d: D form. Dmt = Cc1cc(O)cc(C)c1C[C@H](N)C(=O)O

System: isolated mitochondria
Experiment: TMRM time course of ΔΨm generation in mitochondria with ETH-129 and calcium
Set-up: species or system S. cerevisiae
Experimental: Figure 7. SS peptide effects on Ca^2+-membrane interactions and mitochondrial cation stress. A, profiles of surface potential decay (top) and ion distribution (bottom) based on GCS theory in the presence or absence of SS-31 (see supporting Results H for model description). B, effect of SS peptides on Ca^2+ accumulation at model membrane interfaces. Time course measurements of CG-5N emission were performed in solutions with LUVs (20 mol % TOCL in host POPC background, [lipid]^eff = 100 μM) prebound with SS peptide at the indicated concentration followed by titration of CaCl2 in increments of 1 nmol at 20-s intervals starting at t = 60 s. […] Spectral deconvolution yielded the indicated components (see Fig. S19, A and B), which were used to quantify the area ratios of L2/iso in F (values shown are means ± S.D. (error bars) (n = 3). G, respirometry analysis. Mitochondria (1 mg ml^−1) were treated in the absence or presence of SS-31 (54.4 μM) or CaCl2 (1 mM) as indicated and measured for state 2 respiration (n = 10–12 each).
Second, we measured the effects of SS peptides on mitochondrial Ca^2+ flux. […] In these experiments, we monitored the relative ΔΨm using the potentiometric probe tetramethylrhodamine methyl ester (TMRM) (the emission of which is inversely related to membrane potential; Fig. S17E) and, in parallel, monitored the external [Ca^2+] using CG-5N (Fig. 7C and Fig. S18A). […]

## Cc1cc(O)cc(C)c1C[C@H](NC(=O)[C@H](N)CCCNC(=N)N)C(=O)N[C@@H](CCCCN)C(=O)N[C@@H](Cc1ccccc1)C(N)=O [SS-31, D-Arg-2′6′-dimethyl-Tyr-Lys-Phe-NH2] (H-[dR][Dmt]KF-NH2)
25 μM CaCl2, 1 mM NADH, n = 3
  dose response of effect on Ca2+-dependent ΔΨm generation delay: dose-dependent and saturable
ETH-129, NADH, increasing [Ca2+], TMRM
  effect on temporal delay in mitochondrial energization (ΔΨm generation) with Ca2+: reduced the extent of this temporal delay
